Experimental data as given in PMC2680961, “Homologous desensitization of signalling by the alpha (α) isoform of the human thromboxane A2 receptor: A specific role for nitric oxide signalling” (Biochimica et Biophysica Acta, 2007).
Where a chain is given by its changes, count along the chain named.

Columns and labels:
[1] = target: T1, TPα^S145A (Homo sapiens, UniProt P21731, S145A); experiment: [3H]SQ29,548 radioligand binding, Scatchard analysis, HEK.TPα^S145A
T1 construct: expressed in transfected cells
T1 sequence (P21731 1-343 S145A): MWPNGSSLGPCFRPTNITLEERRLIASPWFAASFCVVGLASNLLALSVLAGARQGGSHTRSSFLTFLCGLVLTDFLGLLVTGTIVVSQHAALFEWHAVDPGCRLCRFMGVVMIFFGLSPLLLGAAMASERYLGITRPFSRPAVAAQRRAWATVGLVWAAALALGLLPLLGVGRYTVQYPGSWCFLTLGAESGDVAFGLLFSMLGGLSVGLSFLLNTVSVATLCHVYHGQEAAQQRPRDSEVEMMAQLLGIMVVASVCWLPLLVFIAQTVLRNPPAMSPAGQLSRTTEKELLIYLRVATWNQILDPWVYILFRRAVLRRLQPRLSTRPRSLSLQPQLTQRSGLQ
Description: Cells were harvested by centrifugation at 500×g at 4 °C for 5 min and washed three times with ice-cold Ca^2+/Mg^2+-free phosphate-buffered saline (PBS). TP radioligand binding assays were carried out at 30 °C for 30 min in 100 μl reactions in the presence of 0–40 nM [^3H] […] Protein determinations were carried out using the Bradford assay.
Radioligand binding and Scatchard analysis data were analysed using GraphPad Prisim V4.0 programme (GraphPad Software Inc., San Diego CA, USA). Statistical analyses were carried out using the unpaired Student's t test using the Statworks Analysis Package. p-values ≤ 0.01 indicated statistically significant differences.

[2] = target: T2, TPα^S331A (Homo sapiens, UniProt P21731, S331A); experiment: Agonist-mediated TP phosphorylation in whole cells, HEK.TPα^S331A; type: cell-based; details: 1 μM U46619 10 min
T2 construct: expressed in transfected cells
T2 sequence (P21731 1-343 S331A): T1 sequence (P21731 1-343 S145A) with A145S, S331A
Description: Agonist-mediated TP phosphorylation in whole cells (1.8–2 × 10^6 cells/10 cm dish) was performed essentially as previously described. Briefly, cells were transiently co-transfected with pADVA (10 μg), pCMV:Gαq (25 μg) plus pcDNA:βArrestin2 (25 μg) approximately 48 h prior to labelling. Thereafter, cells were washed once in phosphate-free DMEM, 10% dialysed FBS and were metabolically labelled for 60 min in the same medium (2 ml/10 cm dish) containing 100 μCi/ml [^32P] orthophosphate (8000–9000 Ci/mmol) at 37 °C, 5% CO2. Where appropriate, the PKG kinase inhibitor KT 5823 (50 nM) or its vehicle was added during the labelling period. Thereafter, U46619 (1 μM) or an equivalent volume of vehicle (0.01% ethanol in HBS; 20 μl) were added and cells were incubated for 10 min at 37 °C, 5% CO2. Reactions were terminated by transferring the dishes to ice and aspirating the labelled medium and HA-epitope tagged TP receptors were processed and immunoprecipitated using the anti-HA 101R antibody as previously described. Electroblots were then exposed to Xomat XAR (Kodak) film to detect ^32P-labelled proteins. Thereafter, blots were subject to phosphorimage analysis, and the intensities of agonist-induced phosphorylation were expressed in arbitrary units relative to basal (vehicle-stimulated) levels. In parallel experiments, cells were incubated under identical conditions in the absence of [^32P] orthophosphate; HA-tagged TP receptors were immunoprecipitated from the same cell lines using the anti-HA 101R antibody and immunoblots were screened using the anti-HA 3F10 horseradish peroxidase-conjugated antibody.

[3] = test system: eNOS; experiment: eNOS phosphorylation (anti-phospho eNOS^Ser1177 western blot); type: cell-based, human; details: HEK.TPα cells (also HEK 293, HEK.TPβ); 1 μM U46619 or 10 U/ml Thrombin, 5 min, 37 °C
Description: In order to assess eNOS phosphorylation, HEK.TPα, HEK.TPβ or HEK 293 cells (2 × 10^6 cells/10-cm dish) were plated some 48 h prior to experimentation. Cells were incubated with vehicle, 1 μM U46619 or 10 U/ml Thrombin for 5 min at 37 °C and aliquots of whole cell protein (100 μg/lane) were analysed by SDS-PAGE/western blot. Blots were initially screened using the anti-phospho eNOS^1177 as per supplier's instructions (Cell Signalling Technology) and, following stripping, were subsequently re-screened using the anti-eNOS (Transduction Laboratories).

Bmax (pmol/mg protein ± S.E.M.) [1] [pmol/mg protein]	U46619-mediated TPα^S331A phosphorylation relative to basal (vehicle) [2] [fold]	SMILES	eNOS phosphorylation at Ser^1177 [3]
3.03 ± 0.04	–	O=C(O)CCC/C=C\C[C@@H]1[C@H](CNNC(=O)Nc2ccccc2)[C@H]2CC[C@@H]1O2 [SQ29,548]	–
–	2	CCCCC[C@H](O)/C=C/[C@@H]1[C@@H](C/C=C\CCCC(=O)O)[C@H]2CO[C@@H]1C2 [U46619]	rapid phosphorylation-dependent activation of eNOS
